Test results reported in US10767149B2, “Microfluidic device for three dimensional and compartmentalized coculture of neuronal and muscle cells, with functional force readout” (priority 2016, dated 2020).
Entries after “also recorded” stand apart in the source; their conditions may differ.

What was measured:
Format in all cases: cell-based, mouse
[1] = test system: NMJs between ChR2^H134R-HBG3-MN neurospheres and C2C12-derived muscle bundle
[2] = test system: NMJs between ChR2^H134R-HBG3-MN and C2C12-derived myotubes
[3] = test system: motor neurons in neurospheres innervating C2C12-derived muscle bundle; assay: Glutamate stimulation of neurospheres in three-dimensional microfluidic neuron-muscle coculture
Procedure: . After reassembling an open-reservoir variant of the microfluidic device onto the muscle strip, the medium contained in all channels was flushed with a collagen-Matrigel mix. Neurospheres ˜300 to 400 μm in diameter were manually selected, resuspended with the same collagen-Matrigel mixture as above, and individually pipetted into the leftmost channel (FIG. 9d and FIG. 8) before the devices were placed in the incubator for matrix gelation, after which medium was supplied to both open reservoirs. The diameter of the neurospheres being greater than the inter-post distance ensured their restriction to the assign channel, resulting in a physical separation of ˜1 mm between the neurons and the muscles.
The first muscle contraction, indicative of the presence of functional NMJs, was recorded 80 s after glutamate administration and the twitching frequency rose during the subsequent 120 s to reach a steady value of ˜1.25 Hz (FIG. 10a). The delay in contraction and increase of the twitching frequency is likely due to the diffusion of the glutamate to the motor neurons embedded in the ECM since this lag is absent in adherent 2D cultures (T. Wada, M. Honda, I. Minami, N. Tooi, Y. Amagai, N. Nakatsuji, K. Aiba, PLoS One 2009, 4, DOI 10.1371/journal.pone.0006722) or three-dimensional constructs in suspension (Y. Morimoto, M. Kato-Negishi, H. Onoe, S. Takeuchi, Biomaterials 2013, 34, 9413).
All three-dimensional cell cultures in the microfluidic devices were carried out in a collagen:Matrigel hydrogel in a 4:1 ratio. Rat tail type I collagen (Corning) was mixed on ice with 10×PBS with phenol red (serving as pH indicator), 0.5 N NaOH and water for cell culture in order to yield a collagen concentration of 2 mg·ml^−1 at a pH of 7.4. Matrigel without growth factors (BD science) was thoroughly mixed to the collagen at 20% of the final gel mixture volume. The gel was then used within a few minutes following its preparation in order to avoid pre-polymerization.
C2C12 were trypsinized, counted and centrifuged for 5 min at 200 rcf. […]

Molecule | effect on light-driven muscle contraction (force F) [1] | contractility of the myocytes after application (spontaneous twitches) [2] | effect on light-induced muscle contraction [2] | myocytes showing inhibition of light-induced muscle contraction [2] | steady muscle twitching frequency ([3]; 400 μM in medium) [Hz] | time to first muscle contraction after administration ([3]; 400 μM in medium, leftmost channel) [s] | time over which twitching frequency rose to steady value ([3]; 400 μM, after first contraction) [s]
α-bungarotoxin | inhibited the contractions; also recorded: inhibited muscle contraction | still contractile; also recorded: did not alter the contractility of the myocytes | inhibited | 17/17 |  |  | 
N[C@@H](CCC(=O)O)C(=O)O [Glutamate] |  |  |  |  | ~1.25 | 80 | 120
